For orientation: EC50 means the concentration giving half of the maximal effect. Read a high EC50 as a need for much substance.

The structures appear in SMILES notation.

In this assay the target is hFXR (Homo sapiens (Human), UniProt Q96RI1). Nature of the assay: In Vitro FXR Assay (TK), luciferase reporter in transfected CV-1 cells. The class given is cell-based. The settings on record: TK-ECRE-luc reporter, hFXR/hRXR, 18 hrs, maximum efficacy <25% of Fexaramine control classified as '+'. As to the method: CV-1 cells were seeded at a density of 2,000,000 cells in a T175 flask with DMEM+10% charcoal double-stripped FBS and incubated at 37° C. in 5% CO2 for 18 h (O/N).
Sequence of hFXR (Q96RI1 whole entry): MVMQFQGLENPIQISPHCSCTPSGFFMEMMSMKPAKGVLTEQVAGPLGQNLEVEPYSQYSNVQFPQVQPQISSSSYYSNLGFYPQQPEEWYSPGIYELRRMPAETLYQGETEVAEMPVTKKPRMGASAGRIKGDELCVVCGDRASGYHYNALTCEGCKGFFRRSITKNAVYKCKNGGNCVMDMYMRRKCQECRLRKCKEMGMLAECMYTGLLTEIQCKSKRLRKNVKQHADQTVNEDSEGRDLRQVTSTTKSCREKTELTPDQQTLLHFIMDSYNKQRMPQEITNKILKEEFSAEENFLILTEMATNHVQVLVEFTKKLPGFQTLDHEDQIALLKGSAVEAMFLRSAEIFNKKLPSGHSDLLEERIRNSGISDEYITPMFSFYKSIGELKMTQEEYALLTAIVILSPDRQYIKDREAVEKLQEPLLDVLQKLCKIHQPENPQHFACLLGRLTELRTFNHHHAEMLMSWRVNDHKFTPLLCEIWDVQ
Sequence of hFXR (P19793 whole entry partner): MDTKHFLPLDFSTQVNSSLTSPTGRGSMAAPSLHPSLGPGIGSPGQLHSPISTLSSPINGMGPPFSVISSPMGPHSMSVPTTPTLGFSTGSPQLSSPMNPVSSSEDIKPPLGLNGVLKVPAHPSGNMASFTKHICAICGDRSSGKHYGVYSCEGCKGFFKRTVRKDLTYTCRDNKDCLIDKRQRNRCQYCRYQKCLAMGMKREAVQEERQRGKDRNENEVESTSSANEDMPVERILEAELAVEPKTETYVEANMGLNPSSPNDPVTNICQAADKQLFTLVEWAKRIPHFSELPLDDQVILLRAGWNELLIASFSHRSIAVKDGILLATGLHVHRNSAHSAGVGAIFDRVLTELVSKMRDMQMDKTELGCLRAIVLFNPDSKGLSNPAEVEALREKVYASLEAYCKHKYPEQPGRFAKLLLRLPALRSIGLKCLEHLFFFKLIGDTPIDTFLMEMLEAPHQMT
After 18 h of incubation, the medium in the T175 flask was changed with fresh DMEM+10% charcoal super-stripped serum. In a polypropylene tube, 2500 μL OptiMEM (Life Technologies, Cat #31985-062) was combined with expression plasmids for hFXR, hRXR, TK-ECRE-luc and pCMX-YFP. The tube was then briefly vortexed and incubated at room temperature for 5 minutes. Transfection reagent (X-tremeGENE HP from Roche, Cat #06 366 236 001) was added to the OptiMEM/plasmid mixture vortexed and incubated at room temperature for 20 minutes. Following incubation, the transfection reagent/DNA mixture complex was added to cells in the T175 flask and the cells were incubated at 37° C. in 5% CO2 for 18 h (O/N).
Compounds were serially diluted in DMSO and added to transfected CV-1 cells. The cells were then incubated for 18 hrs. The next day cells were lysed and examined for luminescence.
(Reporter assays use an easily measured gene product as a stand-in for the process of interest.)
As for `COC(=O)c1ccc2c(N(Cc3ccc(-c4ccc(OC)c(C)c4)cc3)C(=O)CC(C)C)nccc2c1` [Compound 70, Methyl 1-(N-((4′-methoxy-3′-methyl-[1,1′-biphenyl]-4-yl)methyl)-3-methylbutanamido)isoquinoline-6-carboxylate], the EC50 is at most 1000 nM. `COC(=O)c1ccc2c(N(Cc3ccc(-c4ccc5c(c4)CCO5)cc3)C(=O)CC(C)(C)C)nccc2c1` [Compound 46, Methyl 1-(N′-(4-(2,3-dihydrobenzofuran-5-yl)benzyl)-3,3-dimethylbutanamido)isoquinoline-6-carboxylate] gave an EC50 of at most 1000 nM. `COC(=O)c1ccc2c(N(Cc3ccc(-c4ccc(OC)c(C)c4)cc3)C(=O)CC3CCC3)nccc2c1` [Compound 79, Methyl 1-(2-cyclobutyl-N-((4′-methoxy-3′-methyl-[1,1′-biphenyl]-4-yl)methyl)acetamido)isoquinoline-6-carboxylate]: the EC50 was at most 1000 nM.

`COC(=O)c1ccc2c(N(C[C@H]3CC[C@H](c4ccccc4C)CC3)C(=O)CC(C)(C)C)nccc2c1` [Compound 89, Methyl 1-(3,3-dimethyl-N-((trans-4-(o-tolyl)cyclohexyl)methyl)butanamido)isoquinoline-6-carboxylate]: the EC50 was 1000 to 10000 nM.

On to `COC(=O)c1ccc2c(N(C[C@H]3CC[C@H](c4ccccc4OC)CC3)C(=O)CC(C)(C)C)nccc2c1` [Compound 92, Methyl 1-(N-((trans-4-(2-methoxyphenyl)cyclohexyl)methyl)-3,3-dimethylbutanamido)isoquinoline-6-carboxylate], for which the half-maximal effective concentration (EC50) is at least 10000 nM. As for `COC(=O)c1ccc2c(N(Cc3ccc(-c4ccc(OC)c(C)c4)cc3)C(=O)CC3CCCC3)nccc2c1` [Compound 72, Methyl 1-(2-cyclopentyl-N-((4′-methoxy-3′-methyl-[1,1′-biphenyl]-4-yl)methyl)acetamido)isoquinoline-6-carboxylate], the EC50 is at most 1000 nM. `COC(=O)c1ccc2c(N(Cc3ccc(-c4ccc5c(c4)OC(F)(F)O5)cc3)C(=O)CC(C)(C)C)nccc2c1` [Compound 34, Methyl 1-(N-(4-(2,2-difluorobenzo[d][1,3]dioxol-5-yl)benzyl)-3,3-dimethylbutanamido)isoquinoline-6-carboxylate] came in with an EC50 of at most 1000 nM. Compound `COC(=O)c1ccc2c(N(Cc3ccc(-c4ccc(OC)c(Cl)c4)cc3)C(=O)[C@H]3CC[C@H](O)CC3)nccc2c1` [Compound 66, Methyl 1-(trans-N-((3′-chloro-4′-methoxy-[1,1′-biphenyl]-4-yl)methyl)-4-hydroxycyclohexanecarboxamido) isoquinoline-6-carboxylate] returned an EC50 of at most 1000 nM.

For the compound `COC(=O)c1ccc2c(N(Cc3ccc(-c4ccc(C)nc4)cc3)C(=O)CC(C)(C)C)nccc2c1` [Compound 39, Methyl 1-(3,3-dimethyl-N-(4-(6-methylpyridin-3-yl)benzyl)butanamido)isoquinoline-6-carboxylate], the 50% effective concentration (EC50) is 1000 to 10000 nM. As for `COC(=O)c1ccc2c(N(C[C@H]3CC[C@H](c4ccc(OC)cc4)CC3)C(=O)CC(C)(C)C)nccc2c1` [Compound 94, Methyl 1-(N-((trans-4-(4-methoxyphenyl)cyclohexyl)methyl)-3,3-dimethylbutanamido)isoquinoline-6-carboxylate], the figure is at most 1000 nM; as for `COC(=O)c1ccc2c(N(Cc3ccc(-c4ccc(OC)c(C)c4)cc3)C(=O)C3CCCC3)nccc2c1` [Compound 71, Methyl 1-(N-((4′-methoxy-3′-methyl-[1,1′-biphenyl]-4-yl)methyl)cyclopentanecarboxamido) isoquinoline-6-carboxylate], at most 1000 nM; as for `COc1ccc([C@H]2CC[C@H](CN(C(=O)CC(C)(C)C)c3nccc4cc(C(=O)O)ccc34)CC2)cc1C` [Compound 100, 1-(N-((trans-4-(4-Methoxy-3-methylphenyl)cyclohexyl)methyl)-3,3-dimethylbutanamido)isoquinoline-6-carboxylic Acid], 1000 to 10000 nM. In the case of `COC(=O)c1ccc2c(N(Cc3ccc(-c4ccc(OC)c(C)c4)cc3)C(=O)CC3CC3)nccc2c1` [Compound 80, Methyl 1-(2-cyclopropyl-N-((4′-methoxy-3′-methyl-[1,1′-biphenyl]-4-yl)methyl)acetamido)isoquinoline-6-carboxylate] it was at most 1000 nM; in that of `COC(=O)/C=C/c1ccc2c(N(Cc3ccc(-c4ccc(OC)c(C)c4)cc3)C(=O)CC(C)(C)C)nccc2c1` [Compound 102, (E)-Methyl 3-(1-(N-((4′-methoxy-3′-methyl-[1,1′-biphenyl]-4-yl)methyl)-3,3-dimethylbutanamido)isoquinolin-6-yl)acrylate], 1000 to 10000 nM; in that of `COC(=O)c1ccc2c(N(Cc3ccc(-c4ccc(C(F)(F)F)nc4)cc3)C(=O)CC(C)(C)C)nccc2c1` [Compound 33, Methyl 1-(3,3-dimethyl-N-(4-(6-(trifluoromethyl)pyridin-3-yl)benzyl)butanamido)isoquinoline-6-carboxylate], 1000 to 10000 nM. Compound `COC(=O)c1ccc2c(N(Cc3ccc(-c4ccc(OC(F)(F)F)c(Cl)c4)cc3)C(=O)CC(C)(C)C)nccc2c1` [Compound 41, Methyl 1-(N-((3′-chloro-4′-(trifluoromethoxy)-[1,1′-biphenyl]-4-yl)methyl)-3,3-dimethylbutanamido)isoquinoline-6-carboxylate] returned an EC50 of at most 1000 nM. The compound `COC(=O)c1cc2cccc(N(Cc3ccc(-c4ccc(N(C)C)cc4)cc3)C(=O)C3CCCCC3)c2s1` [Compound 12, Methyl 7-(N-((4′-(dimethylamino)-[1,1′-biphenyl]-4-yl)methyl)cyclohexanecarboxamido) benzo[b]thiophene-2-carboxylate] returned an EC50 of 1000 to 10000 nM. As for `COC(=O)c1ccc2c(N(Cc3ccc(-c4ccc(OC)c(C)c4)cc3)C(=O)CCCCO)nccc2c1` [Compound 86, Methyl 1-(5-hydroxy-N-((4′-methoxy-3′-methyl-[1,1-biphenyl]-4-yl)methyl)pentanamido) isoquinoline-6-carboxylate], the figure is at least 10000 nM. Regarding `COC(=O)c1ccc2c(N(Cc3ccc(-c4ccc(OC)c(C)c4)cc3)C(=O)c3ccccc3)nccc2c1` [Compound 73, Methyl 1-(N-((4′-methoxy-3′-methyl-[1,1′-biphenyl]-4-yl)methyl)benzamido)isoquinoline-6-carboxylate], the EC50 was at most 1000 nM. The compound `COC(=O)c1ccc2c(N(Cc3ccc(-c4ccc5c(c4)OCC5)cc3)C(=O)CC(C)(C)C)nccc2c1` [Compound 47, Methyl 1-(N-(4-(2,3-dihydrobenzofuran-6-yl)benzyl)-3,3-dimethylbutanamido)isoquinoline-6-carboxylate] yielded an EC50 of at most 1000 nM.

In turn, `COC(=O)c1ccc2c(N(C[C@H]3CC[C@H](c4ccc(Cl)cc4)CC3)C(=O)CC(C)(C)C)nccc2c1` [Compound 95, Methyl 1-(N-((trans-4-(4-chlorophenyl)cyclohexyl)methyl)-3,3-dimethylbutanamido)isoquinoline-6-carboxylate] came in with an EC50 of 1000 to 10000 nM. As for `COC(=O)c1ccc2c(N(Cc3ccc(-c4ccc(OC)c(F)c4F)cc3)C(=O)CC(C)(C)C)nccc2c1` [Compound 29, Methyl 1-(N-((2′,3′-difluoro-4′-methoxy-[1,1′-biphenyl]-4-yl)methyl)-3,3-dimethylbutanamido)isoquinoline-6-carboxylate], the figure is at most 1000 nM.

The record behind these values is patent publication US10377717B2, “Farnesoid X receptor agonists and uses thereof” (Metacrine, Inc., priority 2015, dated 2019).
